Experimental data reported in PubChem BioAssay AID1259407 (Chemical Carcinogenesis Research Information System (CCRIS), 2018).
Activity calls are given as the source filed them. The rule behind the calls is not given here.

System: CCRIS mutagenicity, Ames/micronucleus/aberration tests
Test: CCRIS mutagenicity studies
[1] = Test System: AMES SALMONELLA TYPHIMURIUM, Strain/Indicator: TA98, Metabolic Activation: HAMSTER, LIVER, S-9, AROCLOR 1254 (10%), Method: PREINCUBATION
[2] = Test System: AMES SALMONELLA TYPHIMURIUM, Strain/Indicator: TA98, Metabolic Activation: NONE, Method: PREINCUBATION
[3] = Test System: AMES SALMONELLA TYPHIMURIUM, Strain/Indicator: TA98, Metabolic Activation: NONE, Method: STANDARD PLATE
[4] = Test System: AMES SALMONELLA TYPHIMURIUM, Strain/Indicator: TA98, Metabolic Activation: RAT, LIVER, S-9, AROCLOR 1254 (10%), Method: PREINCUBATION
[5] = Test System: AMES SALMONELLA TYPHIMURIUM, Strain/Indicator: TA100, Metabolic Activation: HAMSTER, LIVER, S-9, AROCLOR 1254 (10%), Method: PREINCUBATION
[6] = Test System: AMES SALMONELLA TYPHIMURIUM, Strain/Indicator: TA100, Metabolic Activation: NONE, Method: PREINCUBATION
[7] = Test System: AMES SALMONELLA TYPHIMURIUM, Strain/Indicator: TA100, Metabolic Activation: NONE, Method: STANDARD PLATE
[8] = Test System: AMES SALMONELLA TYPHIMURIUM, Strain/Indicator: TA100, Metabolic Activation: RAT, LIVER, S-9, AROCLOR 1254 (10%), Method: PREINCUBATION
[9] = Test System: AMES SALMONELLA TYPHIMURIUM, Strain/Indicator: TA1535, Metabolic Activation: NONE, Method: STANDARD PLATE
[10] = Test System: AMES SALMONELLA TYPHIMURIUM, Strain/Indicator: TA1537, Metabolic Activation: HAMSTER, LIVER, S-9, AROCLOR 1254 (10%), Method: PREINCUBATION
[11] = Test System: AMES SALMONELLA TYPHIMURIUM, Strain/Indicator: TA1537, Metabolic Activation: NONE, Method: PREINCUBATION
[12] = Test System: AMES SALMONELLA TYPHIMURIUM, Strain/Indicator: TA1537, Metabolic Activation: RAT, LIVER, S-9, AROCLOR 1254 (10%), Method: PREINCUBATION
[13] = Test System: AMES SALMONELLA TYPHIMURIUM, Strain/Indicator: TA1535, Metabolic Activation: HAMSTER, LIVER, S-9, AROCLOR 1254 (10%), Method: PREINCUBATION
[14] = Test System: AMES SALMONELLA TYPHIMURIUM, Strain/Indicator: TA1535, Metabolic Activation: NONE, Method: PREINCUBATION
[15] = Test System: AMES SALMONELLA TYPHIMURIUM, Strain/Indicator: TA1535, Metabolic Activation: RAT, LIVER, S-9, AROCLOR 1254 (10%), Method: PREINCUBATION

Measured: mutagenic call

S=C1NCCN1
active: [9] active; positive | Test System: AMES SALMONELLA TYPHIMURIUM, Strain/Indicator: TA1535, Metabolic Activation: S-9 MIX, Method: STANDARD PLATE active; positive | Test System: MOUSE LYMPHOMA, Strain/Indicator: L5178Y (TK+/TK-), Metabolic Activation: RAT, LIVER, S-9, AROCLOR 1254, Method: SUSPENSION/PLATE active; positive
inactive: [1] inactive; negative | [2] inactive; negative | [3] inactive; negative | [4] inactive; negative | Test System: AMES SALMONELLA TYPHIMURIUM, Strain/Indicator: TA98, Metabolic Activation: RAT, LIVER, S-9, AROCLOR 1254, Method: STANDARD PLATE inactive; negative | [5] inactive; negative | [6] inactive; negative | [7] inactive; negative | [8] inactive; negative | Test System: AMES SALMONELLA TYPHIMURIUM, Strain/Indicator: TA100, Metabolic Activation: RAT, LIVER, S-9, AROCLOR 1254, Method: STANDARD PLATE inactive; negative | Test System: AMES SALMONELLA TYPHIMURIUM, Strain/Indicator: TA102, Metabolic Activation: NONE, Method: STANDARD PLATE inactive; negative | Test System: AMES SALMONELLA TYPHIMURIUM, Strain/Indicator: TA102, Metabolic Activation: RAT, LIVER, S-9, AROCLOR 1254, Method: STANDARD PLATE inactive; negative | Test System: AMES SALMONELLA TYPHIMURIUM, Strain/Indicator: TA104, Metabolic Activation: NONE, Method: STANDARD PLATE inactive; negative | Test System: AMES SALMONELLA TYPHIMURIUM, Strain/Indicator: TA104, Metabolic Activation: RAT, LIVER, S-9, AROCLOR 1254, Method: STANDARD PLATE inactive; negative | [10] inactive; negative | [11] inactive; negative | [12] inactive; negative | Test System: MOUSE LYMPHOMA, Strain/Indicator: L5178Y (TK+/TK-), Metabolic Activation: NONE, Method: SUSPENSION/PLATE inactive; negative

OCc1ccc2c(c1)-c1cccc3cccc-2c13
active: [7] active; positive
inactive: [3] inactive; negative

CN(C)CCN(C)C
inactive: [1] inactive; negative | [2] inactive; negative | [4] inactive; negative | [5] inactive; negative | [6] inactive; negative | [8] inactive; negative | [13] inactive; negative | [14] inactive; negative | [15] inactive; negative | [10] inactive; negative | [11] inactive; negative | [12] inactive; negative

O=C/C=C/c1ccco1
inactive: Test System: AMES SALMONELLA TYPHIMURIUM, Strain/Indicator: TA97, Metabolic Activation: HAMSTER, LIVER, S-9, AROCLOR 1254 (10%), Method: PREINCUBATION inactive; negative | Test System: AMES SALMONELLA TYPHIMURIUM, Strain/Indicator: TA97, Metabolic Activation: HAMSTER, LIVER, S-9, AROCLOR 1254 (30%), Method: PREINCUBATION inactive; negative | Test System: AMES SALMONELLA TYPHIMURIUM, Strain/Indicator: TA97, Metabolic Activation: NONE, Method: PREINCUBATION inactive; negative | Test System: AMES SALMONELLA TYPHIMURIUM, Strain/Indicator: TA97, Metabolic Activation: RAT, LIVER, S-9, AROCLOR 1254 (10%), Method: PREINCUBATION inactive; negative | Test System: AMES SALMONELLA TYPHIMURIUM, Strain/Indicator: TA97, Metabolic Activation: RAT, LIVER, S-9, AROCLOR 1254 (30%), Method: PREINCUBATION inactive; negative | Test System: AMES SALMONELLA TYPHIMURIUM, Strain/Indicator: TA98, Metabolic Activation: HAMSTER, LIVER, S-9, AROCLOR 1254 (10 OR 30%), Method: PREINCUBATION inactive; negative | [2] inactive; negative | Test System: AMES SALMONELLA TYPHIMURIUM, Strain/Indicator: TA98, Metabolic Activation: RAT, LIVER, S-9, AROCLOR 1254 (10 OR 30%), Method: PREINCUBATION inactive; negative | Test System: AMES SALMONELLA TYPHIMURIUM, Strain/Indicator: TA100(NR), Metabolic Activation: NONE, Method: PREINCUBATION inactive; negative | [5] inactive; negative | Test System: AMES SALMONELLA TYPHIMURIUM, Strain/Indicator: TA100, Metabolic Activation: HAMSTER, LIVER, S-9, AROCLOR 1254 (30%), Method: PREINCUBATION inactive; negative | [6] inactive; negative | [8] inactive; negative | Test System: AMES SALMONELLA TYPHIMURIUM, Strain/Indicator: TA100, Metabolic Activation: RAT, LIVER, S-9, AROCLOR 1254 (30%), Method: PREINCUBATION inactive; negative | Test System: AMES SALMONELLA TYPHIMURIUM, Strain/Indicator: TA100, Metabolic Activation: RAT, LIVER, S-9, AROCLOR 1254, Method: PREINCUBATION inactive; negative | [13] inactive; negative | Test System: AMES SALMONELLA TYPHIMURIUM, Strain/Indicator: TA1535, Metabolic Activation: HAMSTER, LIVER, S-9, AROCLOR 1254 (30%), Method: PREINCUBATION inactive; negative | [14] inactive; negative | [15] inactive; negative | Test System: AMES SALMONELLA TYPHIMURIUM, Strain/Indicator: TA1535, Metabolic Activation: RAT, LIVER, S-9, AROCLOR 1254 (30%), Method: PREINCUBATION inactive; negative

CCOC(=O)COc1ccc2c(=O)cc(-c3ccccc3)oc2c1
inactive: [3] inactive; negative | Test System: AMES SALMONELLA TYPHIMURIUM, Strain/Indicator: TA98, Metabolic Activation: RAT, LIVER, S-9, PHENOBARBITAL, Method: STANDARD PLATE inactive; negative | [7] inactive; negative | Test System: AMES SALMONELLA TYPHIMURIUM, Strain/Indicator: TA100, Metabolic Activation: RAT, LIVER, S-9, PHENOBARBITAL, Method: STANDARD PLATE inactive; negative | [9] inactive; negative | Test System: AMES SALMONELLA TYPHIMURIUM, Strain/Indicator: TA1535, Metabolic Activation: RAT, LIVER, S-9, PHENOBARBITAL, Method: STANDARD PLATE inactive; negative | Test System: AMES SALMONELLA TYPHIMURIUM, Strain/Indicator: TA1537, Metabolic Activation: NONE, Method: STANDARD PLATE inactive; negative | Test System: AMES SALMONELLA TYPHIMURIUM, Strain/Indicator: TA1537, Metabolic Activation: RAT, LIVER, S-9, PHENOBARBITAL, Method: STANDARD PLATE inactive; negative | Test System: AMES SALMONELLA TYPHIMURIUM, Strain/Indicator: TA1538, Metabolic Activation: NONE, Method: STANDARD PLATE inactive; negative | Test System: AMES SALMONELLA TYPHIMURIUM, Strain/Indicator: TA1538, Metabolic Activation: RAT, LIVER, S-9, PHENOBARBITAL, Method: STANDARD PLATE inactive; negative
